Assays:
[1] = biological target: Bromodomain-containing protein 2 (Homo sapiens, UniProt P25440); assay: Inhibition of immobilized N-LY294002 bead binding to BRD2 (unknown origin) expressed in HEK293T cell nuclear extract incubated for 1 hr by LC-MS/MS analysis; parameters: species or system HEK-293T
[2] = biological target: T1, Bromodomain-containing protein 4 (Homo sapiens, UniProt O60885); assay: Inhibition of immobilized N-LY294002 bead binding to C-terminal Flag-tagged BRD4 (unknown origin) expressed in HEK293T cell nuclear extract incubated for 1 hr by LC-MS/MS analysis; parameters: species or system HEK-293T
[3] = biological target: Bromodomain-containing protein 3 (Homo sapiens, UniProt Q15059); assay: Inhibition of immobilized N-LY294002 bead binding to BRD3 (unknown origin) expressed in HEK293T cell nuclear extract incubated for 1 hr by LC-MS/MS analysis; parameters: species or system HEK-293T
[4] = biological target: T2, Ferrochelatase, mitochondrial (Homo sapiens, UniProt P22830); assay: Stabilization of FECH in human K562 cells after 1 hr by thermal shift assay; type: cell-based
T2 sequence (P22830 whole entry): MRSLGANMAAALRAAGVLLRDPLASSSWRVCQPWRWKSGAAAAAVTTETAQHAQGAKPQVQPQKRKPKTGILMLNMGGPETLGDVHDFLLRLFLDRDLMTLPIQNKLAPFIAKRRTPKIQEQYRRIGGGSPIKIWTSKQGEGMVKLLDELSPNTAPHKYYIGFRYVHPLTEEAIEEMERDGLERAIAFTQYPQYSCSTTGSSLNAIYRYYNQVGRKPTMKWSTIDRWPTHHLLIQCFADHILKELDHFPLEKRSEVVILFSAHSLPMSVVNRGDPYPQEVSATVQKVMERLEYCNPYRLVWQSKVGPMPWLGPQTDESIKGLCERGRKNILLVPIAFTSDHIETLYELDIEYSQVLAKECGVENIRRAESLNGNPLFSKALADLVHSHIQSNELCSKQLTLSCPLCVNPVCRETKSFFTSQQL

[5] = biological target: T1, Bromodomain-containing protein 4
Description: Binding affinity to recombinant human His6-TEV protease-tagged BRD4 bromodomain 1 expressed in bacteria by isothermal titration calorimetric method

[6] = Inhibition of porcine brain tubulin polymerization measured every min during incubation by fluorescence assay; parameters: species or system Sus scrofa
[7] = biological target: Oxidized purine nucleoside triphosphate hydrolase (Homo sapiens, UniProt P36639)
Description: Inhibition of DsRed-fused MTH1 (unknown origin) expressed in HEK293T cells using 8-oxo-dGTP as substrate

[8] = biological target: T3, Ribosyldihydronicotinamide dehydrogenase [quinone] (Homo sapiens, UniProt P16083)
T3 sequence (P16083 whole entry): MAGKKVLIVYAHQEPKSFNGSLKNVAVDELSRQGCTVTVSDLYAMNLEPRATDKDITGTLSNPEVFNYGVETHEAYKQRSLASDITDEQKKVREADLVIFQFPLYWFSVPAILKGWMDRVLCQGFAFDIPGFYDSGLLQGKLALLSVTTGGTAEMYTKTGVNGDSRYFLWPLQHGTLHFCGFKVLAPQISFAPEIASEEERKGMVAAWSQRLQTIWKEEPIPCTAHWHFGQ
Description: Inhibition of kinobead binding to NQO2 in human K562 cells incubated for 30 mins by iTRAQ reagent-based mass spectrometric method

[9] = biological target: Mitogen-activated protein kinase 14 (Mus musculus, UniProt P47811); assay: Inhibition of mouse N-terminal 5His-tagged p38alpha assessed as decrease in 6His-tagged MK2a (51 to 400 residues) phosphorylation in presence of [gamma-33P]-ATP by scintillation counting method
[10] = Inhibition of tubulin polymerization in human U87 cells assessed as decrease in cell viability after 72 hrs by Alamar blue assay; type: cell-based, U-87MG ATCC; conditions: U-87 MG
[11] = biological target: MAP kinase-activated protein kinase 2 (Homo sapiens, UniProt P49137); assay: Inhibition of recombinant MK2 (45 to 400 residues) (unknown origin) using fluorescein isothiocyanate-KKKALSRQLSVAA as substrate
[12] = biological target: T4, Phosphatidylinositol 4,5-bisphosphate 3-kinase catalytic subunit delta isoform (Homo sapiens, UniProt O00329); assay: Inhibition of immobilized N-LY294002 bead binding to PI3Kdelta (unknown origin) expressed in HEK293T cells incubated for 1 hr by LC-MS/MS analysis; type: cell-based, HEK-293T
T4 sequence (O00329 whole entry): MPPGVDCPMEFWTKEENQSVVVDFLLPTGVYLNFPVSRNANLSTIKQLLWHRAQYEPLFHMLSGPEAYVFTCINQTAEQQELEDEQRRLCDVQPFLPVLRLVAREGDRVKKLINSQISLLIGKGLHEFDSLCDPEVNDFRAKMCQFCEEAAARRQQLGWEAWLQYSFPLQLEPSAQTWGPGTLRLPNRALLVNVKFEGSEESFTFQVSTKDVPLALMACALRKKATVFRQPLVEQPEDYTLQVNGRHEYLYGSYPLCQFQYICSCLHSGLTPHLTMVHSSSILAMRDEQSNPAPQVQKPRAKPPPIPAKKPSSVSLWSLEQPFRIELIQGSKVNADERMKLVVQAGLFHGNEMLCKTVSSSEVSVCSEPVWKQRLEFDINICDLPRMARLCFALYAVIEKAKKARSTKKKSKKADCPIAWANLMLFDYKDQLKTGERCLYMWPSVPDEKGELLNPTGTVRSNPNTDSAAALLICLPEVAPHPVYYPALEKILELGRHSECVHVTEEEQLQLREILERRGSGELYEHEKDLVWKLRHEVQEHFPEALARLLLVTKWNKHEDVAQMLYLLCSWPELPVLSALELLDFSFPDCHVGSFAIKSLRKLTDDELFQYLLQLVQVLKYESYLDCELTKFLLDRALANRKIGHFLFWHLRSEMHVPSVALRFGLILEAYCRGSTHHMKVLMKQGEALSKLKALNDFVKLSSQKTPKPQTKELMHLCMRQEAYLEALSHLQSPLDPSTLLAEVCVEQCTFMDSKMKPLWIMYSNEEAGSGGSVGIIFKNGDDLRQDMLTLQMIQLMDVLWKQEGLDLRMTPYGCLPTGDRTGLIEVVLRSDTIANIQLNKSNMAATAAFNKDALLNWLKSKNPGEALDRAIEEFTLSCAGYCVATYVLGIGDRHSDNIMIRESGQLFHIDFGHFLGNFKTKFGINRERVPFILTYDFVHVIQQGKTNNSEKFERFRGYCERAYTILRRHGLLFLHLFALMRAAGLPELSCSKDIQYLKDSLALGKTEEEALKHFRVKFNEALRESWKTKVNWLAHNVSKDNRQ

[13] = biological target: T5, Receptor-interacting serine/threonine-protein kinase 1 (Homo sapiens, UniProt Q13546); assay: Inhibition of recombinant human GST-fused RIPK1 (1 to 497 residues) expressed in baculovirus infected insect Sf9 cells in presence of 32P-gamma-ATP after 30 mins by autoradiogram-based Western blot method
T5 sequence (Q13546 whole entry): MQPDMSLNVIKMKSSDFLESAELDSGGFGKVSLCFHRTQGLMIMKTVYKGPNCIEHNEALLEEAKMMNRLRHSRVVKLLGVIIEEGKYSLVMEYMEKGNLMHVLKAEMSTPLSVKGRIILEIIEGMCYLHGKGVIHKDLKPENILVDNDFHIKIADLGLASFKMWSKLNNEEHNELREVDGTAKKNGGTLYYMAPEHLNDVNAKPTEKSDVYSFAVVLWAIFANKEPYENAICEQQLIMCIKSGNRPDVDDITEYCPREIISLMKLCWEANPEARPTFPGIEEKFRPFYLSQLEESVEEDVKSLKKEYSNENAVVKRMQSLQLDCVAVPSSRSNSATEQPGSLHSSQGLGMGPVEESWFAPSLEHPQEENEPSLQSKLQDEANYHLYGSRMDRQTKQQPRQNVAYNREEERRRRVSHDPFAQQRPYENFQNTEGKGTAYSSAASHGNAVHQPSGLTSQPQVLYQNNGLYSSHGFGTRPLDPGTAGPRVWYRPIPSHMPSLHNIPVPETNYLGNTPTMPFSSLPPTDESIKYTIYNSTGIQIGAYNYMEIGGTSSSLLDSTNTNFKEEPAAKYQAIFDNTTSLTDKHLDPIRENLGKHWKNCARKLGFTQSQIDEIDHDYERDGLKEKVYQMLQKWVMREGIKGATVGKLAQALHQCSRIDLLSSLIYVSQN

[14] = biological target: Indoleamine 2,3-dioxygenase 1 (Homo sapiens, UniProt P14902); assay: Inhibition of recombinant human IDO using L-tryptophan as substrate after 60 mins
[15] = biological target: Bromodomain testis-specific protein (Homo sapiens) (UniProt Q58F21)
[16] = biological target: T1, Bromodomain-containing protein 4; remark: listed apart in the source
[17] = Inhibition of tubulin (unknown origin) polymerization by spectrophotometric method; parameters: species or system Homo sapiens
[18] = biological target: Casein kinase I isoform epsilon (Homo sapiens, UniProt P49674); assay: Inhibition of human CK1epsilon using casein as substrate in presence of [gamma-32P]-ATP
[19] = Inhibition of porcine brain tubulin polymerization measured every min for 1 hr by fluorescence assay; parameters: species or system Sus scrofa
[20] = biological target: Casein kinase I isoform delta (Homo sapiens, UniProt P48730); assay: Inhibition of human CK1delta using casein as substrate in presence of [gamma-32P]-ATP
[21] = biological target: T6, Receptor-type tyrosine-protein kinase FLT3 (Homo sapiens, UniProt P36888); assay: Inhibition of FLT3 (unknown origin)
T6 sequence (P36888 whole entry): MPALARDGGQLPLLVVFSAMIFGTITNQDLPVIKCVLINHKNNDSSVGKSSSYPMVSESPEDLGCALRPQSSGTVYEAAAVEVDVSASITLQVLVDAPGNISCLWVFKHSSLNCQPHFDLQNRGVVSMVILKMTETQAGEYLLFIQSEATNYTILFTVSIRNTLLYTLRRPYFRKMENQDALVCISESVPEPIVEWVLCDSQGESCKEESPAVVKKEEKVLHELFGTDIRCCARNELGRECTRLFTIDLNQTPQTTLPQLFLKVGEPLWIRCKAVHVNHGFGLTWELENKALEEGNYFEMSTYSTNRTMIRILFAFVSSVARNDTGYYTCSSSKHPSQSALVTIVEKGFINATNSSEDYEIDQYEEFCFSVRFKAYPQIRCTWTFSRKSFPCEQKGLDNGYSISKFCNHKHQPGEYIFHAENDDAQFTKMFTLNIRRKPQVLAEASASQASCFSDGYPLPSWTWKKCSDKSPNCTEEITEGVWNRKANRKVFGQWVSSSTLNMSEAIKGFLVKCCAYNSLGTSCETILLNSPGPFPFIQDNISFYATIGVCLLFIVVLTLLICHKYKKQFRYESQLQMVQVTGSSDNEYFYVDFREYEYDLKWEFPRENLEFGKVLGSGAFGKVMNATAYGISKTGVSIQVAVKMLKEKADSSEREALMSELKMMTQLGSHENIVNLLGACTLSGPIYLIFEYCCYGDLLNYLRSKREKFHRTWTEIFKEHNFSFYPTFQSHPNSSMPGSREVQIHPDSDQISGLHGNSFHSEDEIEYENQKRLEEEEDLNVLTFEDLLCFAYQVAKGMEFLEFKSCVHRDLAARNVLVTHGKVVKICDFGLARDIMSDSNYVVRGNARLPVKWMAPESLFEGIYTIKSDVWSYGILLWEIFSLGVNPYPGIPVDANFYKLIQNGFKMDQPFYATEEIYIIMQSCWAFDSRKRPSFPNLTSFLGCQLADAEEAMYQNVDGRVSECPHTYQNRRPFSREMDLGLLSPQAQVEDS

Bromodomain-containing protein 3, sequence (Q15059 whole entry): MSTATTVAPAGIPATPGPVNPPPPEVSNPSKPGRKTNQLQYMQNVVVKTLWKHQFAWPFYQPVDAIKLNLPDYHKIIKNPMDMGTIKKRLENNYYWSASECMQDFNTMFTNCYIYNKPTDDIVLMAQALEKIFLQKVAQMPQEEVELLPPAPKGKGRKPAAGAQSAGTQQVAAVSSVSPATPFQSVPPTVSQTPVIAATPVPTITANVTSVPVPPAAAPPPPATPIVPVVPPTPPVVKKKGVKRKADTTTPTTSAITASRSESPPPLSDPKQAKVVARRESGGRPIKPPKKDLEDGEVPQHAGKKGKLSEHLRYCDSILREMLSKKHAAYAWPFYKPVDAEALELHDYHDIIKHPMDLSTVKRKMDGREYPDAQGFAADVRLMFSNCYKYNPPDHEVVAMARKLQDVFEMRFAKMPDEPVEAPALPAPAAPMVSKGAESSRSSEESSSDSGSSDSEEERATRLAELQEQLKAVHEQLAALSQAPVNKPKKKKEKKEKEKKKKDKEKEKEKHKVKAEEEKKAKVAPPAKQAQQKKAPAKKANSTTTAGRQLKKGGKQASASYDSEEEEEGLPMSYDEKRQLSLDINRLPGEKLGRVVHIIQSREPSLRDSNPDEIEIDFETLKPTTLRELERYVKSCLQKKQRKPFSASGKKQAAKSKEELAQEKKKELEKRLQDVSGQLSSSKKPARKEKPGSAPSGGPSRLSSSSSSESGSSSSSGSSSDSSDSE
Bromodomain-containing protein 2, sequence (P25440 whole entry): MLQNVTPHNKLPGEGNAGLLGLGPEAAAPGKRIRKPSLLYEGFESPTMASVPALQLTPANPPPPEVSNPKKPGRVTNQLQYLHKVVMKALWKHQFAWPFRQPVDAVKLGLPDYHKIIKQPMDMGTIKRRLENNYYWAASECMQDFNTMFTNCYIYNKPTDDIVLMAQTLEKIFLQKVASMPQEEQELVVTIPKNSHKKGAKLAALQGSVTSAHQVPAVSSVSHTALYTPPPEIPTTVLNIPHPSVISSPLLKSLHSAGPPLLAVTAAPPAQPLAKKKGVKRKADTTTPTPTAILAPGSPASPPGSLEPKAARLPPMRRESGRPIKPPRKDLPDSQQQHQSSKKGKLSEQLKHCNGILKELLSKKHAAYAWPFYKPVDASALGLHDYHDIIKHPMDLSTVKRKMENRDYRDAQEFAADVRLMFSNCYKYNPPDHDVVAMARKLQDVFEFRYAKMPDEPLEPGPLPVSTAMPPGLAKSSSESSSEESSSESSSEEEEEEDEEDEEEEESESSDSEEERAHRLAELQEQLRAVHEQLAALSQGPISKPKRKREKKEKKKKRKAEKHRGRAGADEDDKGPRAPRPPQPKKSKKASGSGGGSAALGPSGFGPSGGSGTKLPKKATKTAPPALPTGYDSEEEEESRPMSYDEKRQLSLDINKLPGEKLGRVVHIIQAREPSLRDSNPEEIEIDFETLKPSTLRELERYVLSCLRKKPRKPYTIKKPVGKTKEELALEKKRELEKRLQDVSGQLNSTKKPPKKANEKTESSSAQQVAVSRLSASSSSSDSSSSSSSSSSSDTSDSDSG
Indoleamine 2,3-dioxygenase 1, sequence (P14902 whole entry): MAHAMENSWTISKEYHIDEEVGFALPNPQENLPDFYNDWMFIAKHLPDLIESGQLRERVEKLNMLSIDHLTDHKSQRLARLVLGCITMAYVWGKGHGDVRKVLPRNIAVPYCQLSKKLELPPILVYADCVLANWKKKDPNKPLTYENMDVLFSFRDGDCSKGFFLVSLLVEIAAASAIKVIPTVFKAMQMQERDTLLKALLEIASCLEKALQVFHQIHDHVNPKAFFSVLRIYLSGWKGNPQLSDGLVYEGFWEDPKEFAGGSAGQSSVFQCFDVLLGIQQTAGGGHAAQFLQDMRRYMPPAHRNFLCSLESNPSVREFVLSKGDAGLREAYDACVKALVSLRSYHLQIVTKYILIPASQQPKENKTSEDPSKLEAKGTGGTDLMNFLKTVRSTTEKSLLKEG
MAP kinase-activated protein kinase 2, sequence (P49137 whole entry, the tested form may be a part, canonical isoform): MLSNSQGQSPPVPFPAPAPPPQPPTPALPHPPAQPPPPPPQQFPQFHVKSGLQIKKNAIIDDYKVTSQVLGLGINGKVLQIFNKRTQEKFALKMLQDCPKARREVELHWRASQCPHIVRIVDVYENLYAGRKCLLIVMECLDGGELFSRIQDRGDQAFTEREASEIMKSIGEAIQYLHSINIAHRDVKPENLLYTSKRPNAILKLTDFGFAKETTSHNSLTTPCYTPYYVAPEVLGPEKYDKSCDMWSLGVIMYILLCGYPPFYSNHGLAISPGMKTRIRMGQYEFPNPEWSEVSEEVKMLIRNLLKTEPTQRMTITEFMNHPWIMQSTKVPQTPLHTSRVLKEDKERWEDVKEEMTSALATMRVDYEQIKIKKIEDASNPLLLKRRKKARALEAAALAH
Mitogen-activated protein kinase 14, sequence (P47811 whole entry, the tested form may be a part): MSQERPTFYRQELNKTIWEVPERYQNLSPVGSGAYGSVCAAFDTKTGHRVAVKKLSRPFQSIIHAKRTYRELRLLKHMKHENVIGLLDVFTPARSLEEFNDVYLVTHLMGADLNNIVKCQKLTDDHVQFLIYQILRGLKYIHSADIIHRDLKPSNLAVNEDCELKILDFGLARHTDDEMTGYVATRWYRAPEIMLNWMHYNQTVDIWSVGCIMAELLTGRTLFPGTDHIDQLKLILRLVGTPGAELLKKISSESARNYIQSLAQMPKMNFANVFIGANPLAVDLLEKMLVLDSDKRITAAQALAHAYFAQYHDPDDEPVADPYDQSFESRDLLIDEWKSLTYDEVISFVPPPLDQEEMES
Casein kinase I isoform delta, sequence (P48730 whole entry, canonical isoform): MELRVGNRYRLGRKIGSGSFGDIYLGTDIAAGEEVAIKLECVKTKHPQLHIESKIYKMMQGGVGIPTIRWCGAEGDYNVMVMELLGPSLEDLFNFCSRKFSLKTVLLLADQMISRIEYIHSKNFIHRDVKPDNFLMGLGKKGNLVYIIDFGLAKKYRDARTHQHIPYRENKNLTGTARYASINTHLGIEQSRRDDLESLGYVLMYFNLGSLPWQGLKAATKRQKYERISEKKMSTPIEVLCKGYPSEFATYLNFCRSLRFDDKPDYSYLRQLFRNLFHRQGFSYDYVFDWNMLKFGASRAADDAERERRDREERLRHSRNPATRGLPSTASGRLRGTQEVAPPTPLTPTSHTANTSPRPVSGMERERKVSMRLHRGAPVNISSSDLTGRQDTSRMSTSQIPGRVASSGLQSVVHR
Casein kinase I isoform epsilon, sequence (P49674 whole entry, canonical isoform): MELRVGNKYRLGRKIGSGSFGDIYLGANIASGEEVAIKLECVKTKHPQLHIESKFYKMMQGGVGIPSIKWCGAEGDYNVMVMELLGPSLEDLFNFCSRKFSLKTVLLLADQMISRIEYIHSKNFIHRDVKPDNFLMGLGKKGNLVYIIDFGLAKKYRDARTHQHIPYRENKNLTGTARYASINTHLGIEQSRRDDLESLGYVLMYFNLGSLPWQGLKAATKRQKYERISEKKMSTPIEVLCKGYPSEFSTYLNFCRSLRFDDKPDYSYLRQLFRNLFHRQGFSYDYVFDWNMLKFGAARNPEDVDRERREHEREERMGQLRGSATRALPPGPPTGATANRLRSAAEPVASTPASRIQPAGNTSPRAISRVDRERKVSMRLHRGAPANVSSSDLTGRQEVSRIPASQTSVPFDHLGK

In the case of `O=c1cc(N2CCNCC2)oc2c(-c3ccccc3)cccc12`, the IC50 [1] is reported as 7.4 µM, the IC50 [2] is reported as 9.05 µM and the IC50 [3] is reported as 11.5 µM.

`CCCS(=O)(=O)Nc1ccc(F)c(C(=O)c2c[nH]c3ncc(-c4ccc(Cl)cc4)cc23)c1F` [VEMURAFENIB] showed an EC50 [4] of 5.01 µM.

Work on `CN(c1ccccc1CNc1nc(Nc2ccc3c(c2)CC(=O)N3)ncc1C(F)(F)F)S(C)(=O)=O` yielded a Kd [5] of 0.445 µM.

Work on `CC[C@@H]1C(=O)N(C)c2cnc(Nc3ccc(C(=O)N[C@H]4CC[C@H](N5CCN(CC6CC6)CC5)CC4)cc3OC)nc2N1C(C)C` [VOLASERTIB] yielded a Kd [5] of 0.079 µM.

Work on `O=C1NC(=O)[C@@H](c2cn3c4c(cccc24)CCC3)[C@@H]1c1c[nH]c2ccccc12` [TIVANTINIB] yielded an EC50 [6] of under 1 µM.

With `Oc1ccc(-c2nc(-c3ccc(F)cc3)c(-c3ccncc3)[nH]2)cc1` [SB-202190] the Kd [5] was 3.4 µM.

`CC1(C)CC2CC(C)(CN2c2ncnc3[nH]cnc23)C1` (configuration not stated) showed an IC50 [7] of 0.1 to 0.22 µM.

`Cc1cn(-c2cc(NC(=O)c3ccc(C)c(Nc4nccc(-c5cccnc5)n4)c3)cc(C(F)(F)F)c2)cn1` [NILOTINIB] gave an IC50 [8] of 1.8 µM.

Work on `O=C(CCCc1ccc(-c2ccccc2F)cc1)Nc1ccc(O)cc1` yielded an IC50 [9] of 0.33 µM and an EC50 [10] of under 1 µM.

Molecule `Cc1ccc(-c2ccc3c(ccc4sc5c(c43)NC[C@@H](C)NC5=O)n2)cn1` has a Ki [11] of 0.005 µM.

In the case of `O=c1cc(N2CCOCC2)oc2c(-c3ccccc3)cccc12` [LY-294002], the IC50 [12] is reported as 1.53 µM, the IC50 [1] is reported as 10.3 µM and the IC50 [2] is reported as 12.4 µM. For the same molecule, the IC50 [3] was 13.7 µM.

In the case of `Nc1nc(NCCc2ccccc2)c2nc[nH]c2n1`, the IC50 [7] is reported as 0.1 to 0.22 µM.

Work on `CN1C(=O)C(Cc2c[nH]c3ccccc23)NC1=S` (configuration not stated) [NECROSTATIN] yielded an IC50 [13] of 0.182 µM and an IC50 [14] of 115 µM.

With `C[S+]([O-])c1ccc(-c2nc(-c3ccc(F)cc3)c(-c3ccncc3)[nH]2)cc1` (configuration not stated) the ΔTm [15] was 0.85 °C and the ΔTm [16] was 1.3 °C.

In the case of `O=C(c1ccccc1-c1ccccc1)N1CCc2c([nH]c3ccccc23)C1`, the EC50 [17] is reported as under 1 µM.

Work on `COc1cc(OC)c(/C=C2/C(=O)Nc3ccccc32)c(OC)c1` yielded an IC50 [18] of 1 to 25 µM, an EC50 [19] of under 1 µM and an IC50 [20] of 1 to 25 µM.

For `Cc1cnc(Nc2ccc(N3CCN(C)CC3)cc2)nc1Nc1cccc(S(=O)(=O)NC(C)(C)C)c1`, the IC50 [21] was 0.025 µM.

— ChEMBL document CHEMBL3875233, “Non-kinase targets of protein kinase inhibitors” (Nat Rev Drug Discov, 2017)
